Target: T1, wild-type K-Ras protein (Homo sapiens, UniProt P01116)
T1 construct: expressed in transfected cells; host or cells: HeLa cells, transient transfection
Experiment: Degradation (knockdown) of forcibly expressed wild-type K-Ras protein in HeLa cells, FACS analysis
Type: cell-based
Experimental: A plasmid expressing a wild-type K-Ras protein (K-Ras-WT) was prepared using a plasmid (pMIR-DsRed-IRES-ecDHFR-HA-GFP) expressing an ecDHFR protein by RF cloning. The full-length cDNA clone (Accession No. AK292510) of a human K-ras gene was purchased from Independent Administrative Institution, the National Institute of Technology and Evaluation. PCR amplification was performed using KOD-Plus-Neo (TOYOBO CO., LTD) as a PCR enzyme.
The plasmid was introduced into HeLa cells to transiently overexpress a wild-type K-Ras protein (specifically, a fusion protein of a wild-type K-Ras protein and GFP via a HA tag) or a DsRed protein for comparison in the cells.
ScreenFect™A (Wako Pure Chemical Industries, Ltd.) as a transfection reagent was used to introduce the plasmid into HeLa cells by a routine procedure. The HeLa cells into which the plasmid had been introduced were seeded in a 24-well plate at a cell density of 4×10^4 cells/well, and then cultured under conditions of 37° C. and 5 vol % CO2 for 40 hours. […]
A BD FACSCanto™ II (BD Biosciences) was used for flow cytometry, and the expression levels of GFP and DsRed protein in the cells were quantified. […] The GFP/DsRed ratio per cell was computed using an analysis software FlowJo™ (TOMY Digital Biology Co., Ltd.), and degradation (knockdown) of the wild-type K-Ras protein by TUS-007 was determined from a shift in a graph.

T1 sequence (P01116 1-188 isoform P01116-2): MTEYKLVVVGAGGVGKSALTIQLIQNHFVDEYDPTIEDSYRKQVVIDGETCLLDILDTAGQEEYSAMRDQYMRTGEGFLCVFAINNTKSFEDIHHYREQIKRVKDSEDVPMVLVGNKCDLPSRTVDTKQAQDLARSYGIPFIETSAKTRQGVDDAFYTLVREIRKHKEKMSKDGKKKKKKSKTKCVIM

CC[C@@H](C)[C@H](NC(=O)CCCCCCNC(=O)[C@H](CC(C)C)NC(=O)CNC(=O)c1cc(Cl)ccc1Cl)C(=O)Nc1ccc2[nH]c(Cc3c[nH]c4ccccc34)nc2c1 [TUS-007]
degradation (knockdown) of wild-type K-Ras protein (shift of GFP/DsRed ratio graph) (24 hours after addition, vs control (DMSO)): degradation of the wild-type K-Ras protein was induced | degradation of wild-type K-Ras protein when MLN2238 is added together (both TUS-007 and MLN2238 added, compared with TUS-007 alone): degradation of the wild-type K-Ras protein was inhibited

From US20190369111A1, “MOLECULAR KINETICS EVALUATION METHOD AND SCREENING METHOD” (Tokyo University of Science Foundation, priority 2016, published 2019)
